Measurements reported in patent US20230302140A1, “CONJUGATE OF A SINGLE DOMAIN ANTIBODY, A SAPONIN AND AN EFFECTOR MOLECULE, PHARMACEUTICAL COMPOSITION COMPRISING THE SAME, THERAPEUTIC USE OF SAID PHARMACEUTICAL COMPOSITION” (SAPREME TECHNOLOGIES B.V., priority 2020, published 2023).

What was measured:
human EGFR (human) = human EGFR (human) (UniProt P00533); test: cell-based or functional assay
A2058 cells = test: Cell killing (MTS cell viability) assay; assay type: cell-based, human
Experimental: (§1) After treatment the cells were incubated for 72 hr at 37° C. before the cell viability was determined by a MTS-assay, performed according to the manufacturer’s instruction (CellTiter 96® AQueous One Solution Cell Proliferation Assay, Promega). Briefly, the MTS solution was diluted 20× in DMEM without phenol red (PAN-Biotech GmbH) supplemented with 10% FBS. The cells were washed once with 200 µL/PBS well, after which 100 µL diluted MTS solution was added/well. The plate was incubated for approximately 20-30 minutes at 37° C. Subsequently, the OD at 492 nm was measured on a Thermo Scientific Multiskan FC plate reader (Thermo Scientific). For quantification the background signal of ‘medium only’ wells was subtracted from all other wells, before the cell viability percentage of treated/untreated cells was calculated, by dividing the background corrected signal of treated wells over the background corrected signal of the untreated wells (x 100).
(§2) Cells were seeded in a 96 well plate at 5.000-1 0.000 c/w in 100 µL/well and incubated overnight at 37° C. […] The media was removed from the cell culture plate and replaced by 180 µL culture media, followed by the addition of 20 µL treatment-mix/well. […] In the case that endosomal acidification inhibitors (chloroquine (Sigma Aldrich) or bafilomycin A1 (Enzo Life Sciences)) were used, the cell culture media in step 1 of treatment was replaced by 180 µL media containing 1 µM chloroquine or 0.2 µM bafilomycin A1. The plate was incubated for 1 hour at 37° C., before the 10x treatment-mix samples were added. The remaining incubation and treatment steps were performed according to standard procedures known in the field.
(§3) After treatment the cells were incubated for 72 hr at 37° C. before the cell viability was determined by a MTS-assay, performed according to the manufacturer’s instruction (CellTiter 96® AQueous One Solution Cell Proliferation Assay, Promega). Briefly, the MTS solution was diluted 20x in DMEM without phenol red (PAN-Biotech GmbH) supplemented with 10% FBS (PAN-Biotech GmbH). The cells were washed once with 200 µL PBS per well, after which 100 µL diluted MTS solution was added per well. The plate was incubated for approximately 20-30 minutes at 37° C. Subsequently, the optical density at 492 nm was measured on a Thermo Scientific Multiskan FC plate reader (Thermo Scientific). For quantification the background signal of ‘medium only’ wells was subtracted from all other wells, before the ratio of […].

MDA-MB-468 cells = test: Cell killing (MTS cell viability) assay; assay type: cell-based, human
Experimental: as §1, §2, §3

SK-BR-3 cells = test: Cell killing (MTS cell viability) assay; assay type: cell-based, human
Experimental: as §1, §2, §3

CaSki cells = test: Cell killing (MTS cell viability) assay; assay type: cell-based, human
Experimental: as §2, §3

endosomal acidification = test: Cell viability assay with endosomal acidification inhibitors; assay type: cell-based; details: targeted 2-component system; chloroquine or bafilomycin A1
Experimental: as §2

HeLa cells = test: Cell killing (MTS cell viability) assay; assay type: cell-based, human; details: +1500 nM SO1861 (unconjugated)
Experimental: as §2, §3

JIMT-1 cells = test: Cell killing (MTS cell viability) assay; assay type: cell-based, human; details: +1500 nM SO1861 (unconjugated)
Experimental: as §2, §3

[1] = +50 pM VHH-EGFR-dianthin (fixed)
[2] = +50 pM CD71VHH-dianthin (fixed)
[3] = +50 pM VHH-HER2-dianthin (fixed)

cetuximab-saporin (monoclonal antibody recognizing and binding EGFR, conjugated to the protein toxin, saporin)
cell killing (MTS) on MDA-MB-468 cells (EGFR++), cetuximab-saporin alone, IC50 (human EGFR (human)): 0.3 nM

CC(=O)O[C@H]1[C@H](O[C@@H]2OC[C@@H](O)[C@H](O)[C@H]2O)[C@@H](O)[C@H](O[C@@H]2[C@H](O)[C@@H](O[C@@H]3O[C@@H](C)[C@H](O[C@@H]4OC[C@@H](O)[C@H](O[C@@H]5O[C@H](CO)[C@@H](O)[C@H](O)[C@H]5O)[C@H]4O)[C@@H](O)[C@H]3O)[C@H](OC(=O)[C@]34CCC(C)(C)C[C@H]3C3=CC[C@@H]5[C@@]6(C)CC[C@H](O[C@@H]7O[C@H](C(=O)O)[C@@H](O)[C@H](O[C@@H]8OC[C@@H](O)[C@H](O)[C@H]8O)[C@H]7O[C@@H]7O[C@H](CO)[C@H](O)[C@H](O)[C@H]7O)[C@@](C)(C=O)[C@@H]6CC[C@@]5(C)[C@]3(C)C[C@H]4O)O[C@@H]2C)O[C@@H]1C [SO1861]
IC50 (A2058 cells; +50 pM VHH-CD71-dianthin (fixed)): 200 nM
IC50 cell killing (A2058 cells; [1]): no activity
IC50 (MDA-MB-468 cells; [2]): 200 nM
IC50 (MDA-MB-468 cells; [1]): 300 nM
IC50 cell killing (MDA-MB-468 cells; [3]): no enhanced activity compared to SO1861alone
IC50 (SK-BR-3 cells; +1.5 pM EGF-dianthin (fixed), Ex.9/Table A6: calculated on concentration SO1861): 800 nM
IC50 (SK-BR-3 cells; +10 pM EGF-dianthin (fixed), Table A6: calculated on concentration SO1861): 650 nM
IC50 (SK-BR-3 cells; [2]): 200 nM
IC50 (SK-BR-3 cells; [1]): 700 nM
IC50 (SK-BR-3 cells; [3]): 200 nM
IC50 (CaSki cells; +10 pM cetuximab-saporin (fixed), calculated on concentration SO1861): 700 nM
IC50 (CaSki cells; +50 pM trastuzumab-saporin (fixed), Ex.9/Table A6: calculated on concentration SO1861): ≥ 1000 nM
SO1861 function with endosomal acidification inhibitors (endosomal acidification): function is reduced when acidification of endosomes is blocked

Saporin
IC50 (CaSki cells; +1500 nM SO1861 (unconjugated)): 0.015 nM
IC50 (HeLa cells): 0.03 nM
IC50 (JIMT-1 cells): 0.03 nM
